In ChEMBL document CHEMBL1147995, “In-vitro investigation of oxazol and urea analogues of morphinan at opioid receptors” (Bioorg Med Chem, 2007):

Columns and labels:
[1] = molecular target: T1, Kappa-type opioid receptor (Homo sapiens, UniProt P41145); test: Displacement of [3H]U69,593 from human kappa opioid receptor expressed in CHO membrane; assay type: cell membranes
[2] = Displacement of [3H]naltrindole from human delta opioid receptor expressed in CHO membrane
Mu-type opioid receptor [3] = molecular target: T2, Mu-type opioid receptor (Homo sapiens, UniProt P35372); test: Displacement of [3H]DAMGO from human mu opioid receptor expressed in CHO membrane; assay type: cell membranes
T2 sequence (P35372 whole entry): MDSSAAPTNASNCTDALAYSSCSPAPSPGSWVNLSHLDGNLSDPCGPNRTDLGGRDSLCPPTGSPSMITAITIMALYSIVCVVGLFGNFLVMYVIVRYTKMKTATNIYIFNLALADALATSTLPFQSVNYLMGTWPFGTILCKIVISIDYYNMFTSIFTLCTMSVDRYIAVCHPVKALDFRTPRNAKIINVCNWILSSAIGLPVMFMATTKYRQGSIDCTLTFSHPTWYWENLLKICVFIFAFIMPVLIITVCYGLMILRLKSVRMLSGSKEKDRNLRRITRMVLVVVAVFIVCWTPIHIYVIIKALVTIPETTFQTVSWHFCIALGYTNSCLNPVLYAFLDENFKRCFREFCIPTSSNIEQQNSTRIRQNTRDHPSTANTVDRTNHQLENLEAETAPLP

[4] = molecular target: T3, Delta-type opioid receptor (Homo sapiens, UniProt P41143); test: Displacement of [3H]naltrindole from human delta opioid receptor expressed in CHO membrane at 10 uM; assay type: cell membranes
T3 sequence (P41143 whole entry): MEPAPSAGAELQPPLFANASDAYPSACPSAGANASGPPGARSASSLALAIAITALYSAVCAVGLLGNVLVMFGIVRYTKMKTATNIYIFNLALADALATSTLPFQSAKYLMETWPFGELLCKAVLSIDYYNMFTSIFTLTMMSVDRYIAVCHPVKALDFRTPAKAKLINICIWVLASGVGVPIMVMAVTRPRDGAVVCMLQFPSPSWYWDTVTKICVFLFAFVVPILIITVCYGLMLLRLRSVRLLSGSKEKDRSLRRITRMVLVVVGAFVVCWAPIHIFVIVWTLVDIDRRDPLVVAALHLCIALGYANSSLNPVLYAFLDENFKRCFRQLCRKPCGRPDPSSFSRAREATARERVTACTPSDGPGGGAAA

[5] = molecular target: T3, Delta-type opioid receptor; test: Displacement of [3H]naltrindole from human delta opioid receptor expressed in CHO membrane; assay type: cell membranes
[6] = molecular target: T1, Kappa-type opioid receptor; test: Agonist activity at human kappa opioid receptor expressed in CHO cells assessed as stimulation of [35S]GTP-gamma-S binding after 60 mins; assay type: functional, cell-based
Mu-type opioid receptor [7] = molecular target: T2, Mu-type opioid receptor; test: Agonist activity at human mu opioid receptor expressed in CHO cells assessed as stimulation of [35S]GTP-gamma-S binding after 60 mins; assay type: functional, cell-based
Mu-type opioid receptor [8] = molecular target: T2, Mu-type opioid receptor; test: Antagonist activity at human mu opioid receptor expressed in CHO cells assessed as inhibition of DAMGO-induced [35S]GTPgammaS binding after 60 mins; assay type: functional, cell-based
Mu-type opioid receptor [9] = molecular target: T2, Mu-type opioid receptor; test: Agonist activity at human mu opioid receptor expressed in CHO cells assessed as stimulation of [35S]GTP-gamma-S binding relative to basal level after 60 mins; assay type: functional, cell-based
[10] = molecular target: T1, Kappa-type opioid receptor; test: Agonist activity at human kappa opioid receptor expressed in CHO cells assessed as stimulation of [35S]GTP-gamma-S binding relative to basal level after 60 mins; assay type: functional, cell-based

T1 sequence (P41145 whole entry): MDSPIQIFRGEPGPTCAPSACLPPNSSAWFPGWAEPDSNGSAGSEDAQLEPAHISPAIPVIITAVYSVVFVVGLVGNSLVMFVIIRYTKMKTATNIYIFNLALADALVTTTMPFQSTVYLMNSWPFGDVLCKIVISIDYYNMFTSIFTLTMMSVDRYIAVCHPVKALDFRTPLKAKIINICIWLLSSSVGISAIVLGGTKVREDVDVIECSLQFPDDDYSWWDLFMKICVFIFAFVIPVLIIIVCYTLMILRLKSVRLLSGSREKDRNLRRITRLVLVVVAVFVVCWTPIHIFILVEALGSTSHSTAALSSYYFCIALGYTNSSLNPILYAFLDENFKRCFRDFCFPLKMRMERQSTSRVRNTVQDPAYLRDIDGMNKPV

Row | SMILES | Ki [1] | Ki [2] | Ki (Mu-type opioid receptor [3]) | inhibition [4] | Ki [5] | EC50 [6] | EC50 (Mu-type opioid receptor [7]) | IC50 (Mu-type opioid receptor [8]) | Imax (Mu-type opioid receptor [8]) | Emax (Mu-type opioid receptor [9]) | Emax [10]
1 | Nc1ccc2c(c1)[C@@]13CCCC[C@H]1[C@@H](C2)N(CC1CC1)CC3 | 0.18 nM | 150 nM | 1.3 nM | – | – | – | – | – | – | – | –
2 | Nc1nc2cc3c(cc2o1)[C@@]12CCCC[C@H]1[C@@H](C3)N(CC1CCC1)CC2 | 6.6 nM | – | 40 nM | 46% | – | – | – | – | – | – | –
3 | NC(=O)Nc1ccc2c(c1)[C@@]13CCCC[C@H]1[C@@H](C2)N(CC1CC1)CC3 | 0.61 nM | – | 1.4 nM | – | 23 nM | 33 nM | 31 nM | 380 nM | 52% | 21% | 84%
4 | CNC(=O)Nc1ccc2c(c1)[C@@]13CCCC[C@H]1[C@@H](C2)N(CC1CC1)CC3 | 2.3 nM | – | 12 nM | – | 50 nM | 8.4 nM | – | – | – | – | 67%
5 | Nc1ccc2c(c1)[C@@]13CCCC[C@H]1[C@@H](C2)N(CC1CCC1)CC3 | – | 180 nM | – | – | – | – | – | – | – | – | –
6 | CNC(=O)Nc1ccc2c(c1)[C@@]13CCCC[C@H]1[C@@H](C2)N(CC1CCC1)CC3 | 20 nM | – | 22 nM | – | 270 nM | – | – | – | – | – | –
7 | O=c1[nH]c2cc3c(cc2o1)[C@@]12CCCC[C@H]1[C@@H](C3)N(CC1CCC1)CC2 | 1.9 nM | – | 5.8 nM | – | 360 nM | – | – | – | – | – | –
8 | NC(=O)Nc1ccc2c(c1)[C@@]13CCCC[C@H]1[C@@H](C2)N(CC1CCC1)CC3 | 8.9 nM | – | 3.2 nM | – | 160 nM | 87 nM | 63 nM | 1500 nM | 35% | 33% | 64%
9 | O=c1[nH]c2cc3c(cc2o1)[C@@]12CCCC[C@H]1[C@@H](C3)N(CC1CC1)CC2 | 47 nM | – | 160 nM | 44% | – | – | – | – | – | – | –
10 | Nc1nc2cc3c(cc2o1)[C@@]12CCCC[C@H]1[C@@H](C3)N(CC1CC1)CC2 | 52 nM | – | 150 nM | 18% | – | – | – | – | – | – | –
